Data reported in patent US20150366862A1, “Use of flibanserin for the treatment of pre-menopausal sexual desire disorders” (Sprout Pharmaceuticals, Inc., priority 2005, published 2015).

Legend:
[1] = test system: 5-HT2-receptor; conditions: background statement, no value given; cited from earlier work
[2] = target: T1, 5-HT-1A receptor (Homo sapiens, UniProt P08908); conditions: background statement, no value given; cited from earlier work
T1 sequence (P08908 1-422): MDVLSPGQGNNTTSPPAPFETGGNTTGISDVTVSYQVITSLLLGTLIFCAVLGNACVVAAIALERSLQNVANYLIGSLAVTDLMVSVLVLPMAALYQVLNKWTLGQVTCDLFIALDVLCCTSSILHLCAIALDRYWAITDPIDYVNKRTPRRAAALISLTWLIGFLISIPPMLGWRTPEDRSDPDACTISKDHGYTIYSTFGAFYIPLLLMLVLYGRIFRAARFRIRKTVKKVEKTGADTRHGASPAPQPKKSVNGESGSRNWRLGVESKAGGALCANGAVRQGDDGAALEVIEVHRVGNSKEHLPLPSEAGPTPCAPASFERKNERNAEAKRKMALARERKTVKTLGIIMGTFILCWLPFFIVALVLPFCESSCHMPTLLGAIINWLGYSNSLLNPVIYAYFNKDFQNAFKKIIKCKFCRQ

[3] = test system: pre-menopausal female patients with HSDD; assay: twelve-week randomized, double-blind, placebo-controlled proof of concept trial in pre-menopausal female patients with HSDD (IVR-FSBQ); format: in vivo, human
Method: This trial was designed as a prospective, multi-center, twelve-week, randomized, double-blind, placebo-controlled, proof of concept, parallel-group trial comparing the effects of flibanserin (maximum total daily dose: 100 mg b.i.d.) to placebo in pre-menopausal female patients with HSDD. Seventy-five patients were to be randomized to each treatment group.
This proof of concept trial was designed to assess whether twelve weeks of flibanserin treatment produced a clinically meaningful therapeutic response in healthy female patients with HSDD (as determined by DSM-IV criteria). Efficacy for flibanserin was assessed versus a parallel placebo group.
After a Screening period (no treatment) of approximately twenty-eight days, eligible patients were randomized into the twelve week, double-blind portion of the trial during which they were to take study medication in the morning and in the evening about 12 hours apart.
Patients must have been pre-menopausal females who were 18 to 45 years of age with the primary diagnosis of HSDD, acquired type, according to DSM-IV criteria. The current episode must have been at least 24 weeks in duration by the Baseline Visit.
The baseline severity criterion was from the Arizona Sexual Experiences Scale, requiring a score of 5 or 6 (very weak or no sex drive) on the sex drive item. […]

SMILES: O=c1[nH]c2ccccc2n1CCN1CCN(c2cccc(C(F)(F)F)c2)CC1 [flibanserin, 1-[2-(4-(3-trifluoromethyl-phenyl)piperazin-1-yl)ethyl]-2,3-dihydro-1H-benzimidazol-2-one]
- affinity for the 5-HT2-receptor [1]: shows affinity
- affinity for the 5-HT-1A receptor [2]: shows affinity
- IVR-FSBQ Frequency of Sexual Thoughts, monthly mean change from baseline vs placebo ([3]; pre-menopausal women with HSDD, 50 mg b.i.d. (up to 100 mg b.i.d. from Week 8), 12 weeks, FAS, LOCF, FIG. 1): clearly demonstrates the efficacy
- sexual desire enhancing properties ([3]; studies of pre-menopausal female patients suffering from sexual dysfunction): displays sexual desire enhancing properties
